Literature values as cited in patent publication US20070281881A1, “Methods And Compositions Comprising Non-Peptide Small Molecules That Solubilize Beta Amyloid Peptide Fiber” (priority 2004, published 2007).

Tests used:
Aβ = Aβ (Homo sapiens, UniProt P05067); conditions: result in words, from cited studies
[1] = result in words, from cited studies

Chain of Aβ (P05067 672-713 limits assumed): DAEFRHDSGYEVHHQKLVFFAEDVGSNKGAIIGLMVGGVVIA

crossing of the blood brain barrier [1]	Compound	binding to Aβ and effect on Aβ aggregation (Aβ)
easily crosses the blood brain barrier	COc1ccc2[nH]cc(CCNC(C)=O)c2c1 [Melatonin]	binds and slows down Aβ aggregation
	CN1CCCC1c1cccnc1 (stereo not drawn) [nicotine]	binds and slows down Aβ aggregation
